Results taken from article PMC2772130 (Chemical research in toxicology, 2008).

Key:
P450 1A1 [1] = target: T1, P450 1A1 (Homo sapiens, UniProt P04798); experiment: Quenching of P450 fluorescence with inhibitors, P450 1A1; type: binding
T1 sequence (P04798 1-512): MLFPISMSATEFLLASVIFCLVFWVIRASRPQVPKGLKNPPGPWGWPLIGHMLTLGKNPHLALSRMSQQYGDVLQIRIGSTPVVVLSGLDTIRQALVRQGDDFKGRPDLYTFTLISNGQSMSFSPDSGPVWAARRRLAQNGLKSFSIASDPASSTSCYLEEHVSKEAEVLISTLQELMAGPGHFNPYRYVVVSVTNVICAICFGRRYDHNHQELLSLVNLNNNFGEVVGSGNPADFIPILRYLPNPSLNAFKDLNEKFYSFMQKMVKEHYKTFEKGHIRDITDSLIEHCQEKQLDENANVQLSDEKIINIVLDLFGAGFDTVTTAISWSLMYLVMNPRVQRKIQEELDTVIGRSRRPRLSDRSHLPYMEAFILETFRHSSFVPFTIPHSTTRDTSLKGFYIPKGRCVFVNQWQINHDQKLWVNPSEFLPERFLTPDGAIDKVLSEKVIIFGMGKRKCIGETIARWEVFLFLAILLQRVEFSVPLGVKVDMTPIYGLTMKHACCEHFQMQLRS

P450 1A2 [2] = target: T2, P450 1A2 (Homo sapiens, UniProt P05177); settings: cited from earlier work
T2 sequence (P05177 1-516): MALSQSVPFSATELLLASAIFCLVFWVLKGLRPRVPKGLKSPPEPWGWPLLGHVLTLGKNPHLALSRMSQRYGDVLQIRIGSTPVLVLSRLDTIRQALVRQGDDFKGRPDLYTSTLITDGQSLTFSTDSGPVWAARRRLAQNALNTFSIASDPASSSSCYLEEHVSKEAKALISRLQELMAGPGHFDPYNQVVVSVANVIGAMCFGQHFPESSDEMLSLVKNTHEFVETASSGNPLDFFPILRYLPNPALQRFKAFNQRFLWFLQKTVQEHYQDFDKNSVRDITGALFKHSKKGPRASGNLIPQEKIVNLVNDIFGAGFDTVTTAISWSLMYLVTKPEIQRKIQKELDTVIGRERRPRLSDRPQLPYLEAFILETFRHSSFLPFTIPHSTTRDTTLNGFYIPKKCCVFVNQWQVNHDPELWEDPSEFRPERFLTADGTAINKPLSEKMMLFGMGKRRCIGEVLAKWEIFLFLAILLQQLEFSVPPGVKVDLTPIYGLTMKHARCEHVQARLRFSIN

P450 1A2 [3] = target: T2, P450 1A2; experiment: Inhibition of P450 1A2-dependent EROD activity; type: biochemical; settings: 37 °C
P450 1B1 [4] = target: T3, P450 1B1 (Homo sapiens, UniProt Q16678); experiment: Quenching of PAH; settings: for half-maximal time (t1/2) to decrease B[a]P emission: 10 nM P450 1B1, 25 °C
T3 sequence (Q16678 1-543): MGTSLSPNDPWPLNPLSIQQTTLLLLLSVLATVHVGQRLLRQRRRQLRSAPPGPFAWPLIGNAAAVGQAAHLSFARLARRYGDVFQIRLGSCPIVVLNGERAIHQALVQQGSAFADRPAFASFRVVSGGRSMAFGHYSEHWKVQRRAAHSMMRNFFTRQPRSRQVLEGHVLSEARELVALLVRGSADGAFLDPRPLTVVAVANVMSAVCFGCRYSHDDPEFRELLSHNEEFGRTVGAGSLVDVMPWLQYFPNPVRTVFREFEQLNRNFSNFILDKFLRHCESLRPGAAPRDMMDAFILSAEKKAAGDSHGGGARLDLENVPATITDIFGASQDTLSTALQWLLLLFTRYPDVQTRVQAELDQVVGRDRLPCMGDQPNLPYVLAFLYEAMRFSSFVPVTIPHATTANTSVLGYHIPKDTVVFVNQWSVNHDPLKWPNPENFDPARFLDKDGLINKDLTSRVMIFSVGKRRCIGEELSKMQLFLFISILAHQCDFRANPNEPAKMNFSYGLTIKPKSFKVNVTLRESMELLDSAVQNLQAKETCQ

P450 1A2 [5] = target: T2, P450 1A2; experiment: Quenching of P450 fluorescence with inhibitors, P450 1A2; type: binding
P450 1B1 [6] = target: T3, P450 1B1; experiment: Inhibition of P450 1B1-dependent 7-ethoxyresorufin O-deethylation; settings: for IC50: inhibition of EROD activity IC50, 15 s of incubation time (direct and direct/restore inhibitors), means and SE
P450 1A1 [7] = target: T1, P450 1A1; settings: cited from earlier work
P450 1B1 [8] = target: T3, P450 1B1
P450 1B1 [9] = target: T3, P450 1B1; settings: cited from earlier work
P450 1A1 [10] = target: T1, P450 1A1; experiment: Inhibition of P450 1A1-dependent EROD activity; type: biochemical; settings: for fold increase in EROD Km of P450 1A1: 1PP 66 nM, 3PPh 333 nM
P450 1B1 [11] = target: T3, P450 1B1; experiment: Spectral binding titrations with purified P450 1B1; settings: for wavelengths (peak/trough): 1 μM P450 1B1, pH 7.4
P450 1B1 [12] = target: T3, P450 1B1; experiment: Quenching of P450 1B1; type: binding; settings: extrapolated % quenching; 1.0 μM P450 1B1
P450 1A2 [13] = target: T2, P450 1A2; experiment: Quenching of inhibitor-derived fluorescence with P450 1A2; settings: enzyme and inhibitor 10 nM; 25 °C
P450 1A1 [14] = target: T1, P450 1A1; experiment: Quenching of inhibitor-derived fluorescence with P450 1A1; settings: enzyme and inhibitor 10 nM; 25 °C

c1ccc2c(c1)cc1ccc3cccc4ccc2c1c34 [B[a]P, benzo[a]pyrene]
Kd (P450 1A1 [1]): ~10000 nM
mechanism of inhibition of P450 1A2 (P450 1A2 [2]): mechanism-based manner
mechanism of inhibition of P450 1A2 EROD activity (P450 1A2 [3]): directly inhibited by low concentration of B[a]P, but the inhibition was increased with time at higher B[a]P concentrations
Kd (P450 1B1 [4]): 11 nM
half-maximal time (t1/2) to decrease B[a]P emission (P450 1B1 [4]; 2.5 nM B[a]P): 33 s
half-maximal time (t1/2) to decrease B[a]P emission (P450 1B1 [4]; 5 nM B[a]P): 15 s
half-maximal time (t1/2) to decrease B[a]P emission (P450 1B1 [4]; 10 nM B[a]P): 7.5 s
Kd (P450 1A2 [5]): ~10000 nM
IC50 (P450 1B1 [6]): 31 ± 4 nM

CC#Cc1ccc2ccc3cccc4ccc1c2c34 [1PP, 1-(1-propynyl)pyrene]
mechanism of inhibition of P450 1A1 (P450 1A1 [7]): mechanism-based manner
Kd (P450 1A1 [1]): ~10000 nM
ΔAmax / Ks (P450 1B1 [8]): 0.016
mechanism of inhibition of P450 1B1 (P450 1B1 [9]): direct inhibitors
fold increase in EROD Km of P450 1A1 (P450 1A1 [10]; at 360 s): 10 fold
fold increase in EROD Km of P450 1A1 (P450 1A1 [10]; initial incubation time): ~ 8 fold
mechanism of inhibition of P450 1A1 EROD activity (P450 1A1 [10]; 37 °C, 30 min): mechanism-based inhibitors
mechanism of inhibition of P450 1A2 EROD activity (P450 1A2 [3]): mechanism-based manner
Kd (P450 1B1 [11]): 2700 ± 400 nM
wavelengths (peak/trough) (P450 1B1 [11]): 416/383
Kd (P450 1B1 [4]): 1.9 to 18 nM
PAH binding to P450 1B1 Bmax (P450 1B1 [12]): 69 ± 1%
Kd (P450 1A2 [5]): ~10000 nM
EROD kcat of P450 1B1 relative to controls (P450 1B1 [6]; 1PP 66 nM, 3PPh 33 nM, after 6 min of incubation): 44%
fold increase in EROD Km of P450 1B1 (P450 1B1 [6]; 1PP 66 nM, 3PPh 33 nM, at 15 s): 6.8 fold
IC50 (P450 1B1 [6]): 22 ± 3 nM
EROD kcat of P450 1B1 relative to control, first decrease (P450 1B1 [6]; initial stage of incubation): ~ one-fifth

C#Cc1ccc2ccc3cccc4ccc1c2c34 [1EP, 1-ethynylpyrene]
mechanism of inhibition of P450 1A1 (P450 1A1 [7]): mechanism-based manner
ΔAmax / Ks (P450 1B1 [8]): 0.017
mechanism of inhibition of P450 1B1 (P450 1B1 [9]): direct inhibitors
Kd (P450 1B1 [11]): 2900 ± 1000 nM
wavelengths (peak/trough) (P450 1B1 [11]): 416/383
interaction with P450 1A2 (fluorescence quenching) (P450 1A2 [13]): No interactions
Kd (P450 1B1 [4]): 1.9 to 18 nM
PAH binding to P450 1B1 Bmax (P450 1B1 [12]): 74 ± 1%
fluorescence quenching with P450 1A1 (P450 1A1 [14]): to a lesser extent with P450 1A1 than 1B1
IC50 (P450 1B1 [6]): 31 ± 4 nM
